Earlier results in PMC3971013 (Journal of natural products, 2013).
Like-named read-outs stand apart in the source and are kept apart here. Non-standard residues stand in square brackets, D forms with d. Residues, ends and D or L forms follow the SMILES beside them. *: point of attachment. Octanoyl(2R-Me,7,8-dehydro) = C=CCCCC[C@@H](C)C(=O)*; Oct7ynoyl(2R-Me) = C#CCCCC[C@@H](C)C(=O)*; NMeF = CN[C@@H](Cc1ccccc1)C(=O)O; X4 = CC(=O)CCCC[C@@H](C)C(=O)*; Oct(7)enoyl = C=CCCCCCC(=O)*; Oct(7)ynoyl = C#CCCCCCC(=O)*; NMeV = CN[C@H](C(=O)O)C(C)C; Hept6ynoyl = C#CCCCCC(=O)*; NMeA = CN[C@@H](C)C(=O)O; X3 = C=CCCCCC(=O)*

System: Vero Cells
[1] = previously reported LD50 values

Structure (SMILES)	LD50 Vero Cells [1] [µM]	LD50 Vero Cells [µM]
C#CCCCCC(=O)N(C)[C@H](C(=O)N(C)[C@H](C(=O)N(C)[C@H](C(=O)N(C)[C@@H](C)C(=O)N(C)[C@@H](Cc1ccccc1)C(=O)OC)C(C)C)C(C)C)C(C)C [Compound 18] (Hept6ynoyl-[NMeV][NMeV][NMeV][NMeA][NMeF]-OMe)	41.4	–
CC(=O)CCCC[C@@H](C)C(=O)N(C)[C@H](C(=O)N(C)[C@H](C(=O)N[C@H](C(=O)N(C)[C@@H](C)C(=O)N(C)[C@@H](Cc1ccccc1)C(N)=O)C(C)C)C(C)C)C(C)C [Almiramide A (7), Almiramide A] (X4-[NMeV][NMeV]V[NMeA][NMeF]-NH2)	113.1	–
C=CCCCCCC(=O)N(C)[C@H](C(=O)N(C)[C@H](C(=O)N(C)[C@H](C(=O)N(C)[C@@H](C)C(=O)N(C)[C@@H](Cc1ccccc1)C(=O)N(C)C)C(C)C)C(C)C)C(C)C [Compound 13] ({Oct(7)enoyl}-[NMeV][NMeV][NMeV][NMeA][NMeF]-NMe2)	–	23.8
C=CCCCCCC(=O)N(C)[C@H](C(=O)N(C)[C@H](C(=O)N(C)[C@H](C(=O)N(C)[C@@H](C)C(=O)N(C)[C@@H](Cc1ccccc1)C(=O)O)C(C)C)C(C)C)C(C)C [Compound 17] ({Oct(7)enoyl}-[NMeV][NMeV][NMeV][NMeA][NMeF]-OH)	–	192.4
C#CCCCC[C@@H](C)C(=O)N(C)[C@H](C(=O)N(C)[C@H](C(=O)N[C@H](C(=O)N(C)[C@@H](C)C(=O)N(C)[C@@H](Cc1ccccc1)C(N)=O)C(C)C)C(C)C)C(C)C [Almiramide B (8), Almiramide B] ({Oct7ynoyl(2R-Me)}-[NMeV][NMeV]V[NMeA][NMeF]-NH2)	52.3	–
C=CCCCCC(=O)N(C)[C@H](C(=O)N(C)[C@H](C(=O)N(C)[C@H](C(=O)N(C)[C@@H](C)C(=O)N(C)[C@@H](Cc1ccccc1)C(=O)O)C(C)C)C(C)C)C(C)C [Compound 15] (X3-[NMeV][NMeV][NMeV][NMeA][NMeF]-OH)	–	>70.0
C#CCCCCCC(=O)N(C)[C@H](C(=O)N(C)[C@H](C(=O)N(C)[C@H](C(=O)N(C)[C@@H](C)C(=O)N(C)[C@@H](Cc1ccccc1)C(=O)OC)C(C)C)C(C)C)C(C)C [Compound 20] ({Oct(7)ynoyl}-[NMeV][NMeV][NMeV][NMeA][NMeF]-OMe)	27.0	–
C=CCCCCC(=O)N(C)[C@H](C(=O)N(C)[C@H](C(=O)N(C)[C@H](C(=O)N(C)[C@@H](C)C(=O)N(C)[C@@H](Cc1ccccc1)C(=O)OC)C(C)C)C(C)C)C(C)C [Compound 19] (X3-[NMeV][NMeV][NMeV][NMeA][NMeF]-OMe)	–	24.7
C=CCCCCC(=O)N(C)[C@H](C(=O)N(C)[C@H](C(=O)N(C)[C@H](C(=O)N(C)[C@@H](C)C(=O)N(C)[C@@H](Cc1ccccc1)C(=O)N(C)C)C(C)C)C(C)C)C(C)C [Compound 11] (X3-[NMeV][NMeV][NMeV][NMeA][NMeF]-NMe2)	–	93.1
C#CCCCCCC(=O)N(C)[C@H](C(=O)N(C)[C@H](C(=O)N(C)[C@H](C(=O)N(C)[C@@H](C)C(=O)N(C)[C@@H](Cc1ccccc1)C(=O)N(C)C)C(C)C)C(C)C)C(C)C [Compound 12] ({Oct(7)ynoyl}-[NMeV][NMeV][NMeV][NMeA][NMeF]-NMe2)	159.4	–
C#CCCCCCC(=O)N(C)[C@H](C(=O)N(C)[C@H](C(=O)N(C)[C@H](C(=O)N(C)[C@@H](C)C(=O)N(C)[C@@H](Cc1ccccc1)C(=O)O)C(C)C)C(C)C)C(C)C [Compound 16] ({Oct(7)ynoyl}-[NMeV][NMeV][NMeV][NMeA][NMeF]-OH)	>68.9	–
C#CCCCCC(=O)N(C)[C@H](C(=O)N(C)[C@H](C(=O)N(C)[C@H](C(=O)N(C)[C@@H](C)C(=O)N(C)[C@@H](Cc1ccccc1)C(=O)O)C(C)C)C(C)C)C(C)C [Compound 14] (Hept6ynoyl-[NMeV][NMeV][NMeV][NMeA][NMeF]-OH)	281.1	–
C=CCCCCCC(=O)N(C)[C@H](C(=O)N(C)[C@H](C(=O)N(C)[C@H](C(=O)N(C)[C@@H](C)C(=O)N(C)[C@@H](Cc1ccccc1)C(=O)OC)C(C)C)C(C)C)C(C)C [Compound 21] ({Oct(7)enoyl}-[NMeV][NMeV][NMeV][NMeA][NMeF]-OMe)	–	18.8
C#CCCCCC(=O)N(C)[C@H](C(=O)N(C)[C@H](C(=O)N(C)[C@H](C(=O)N(C)[C@@H](C)C(=O)N(C)[C@@H](Cc1ccccc1)C(=O)N(C)C)C(C)C)C(C)C)C(C)C [Compound 10] (Hept6ynoyl-[NMeV][NMeV][NMeV][NMeA][NMeF]-NMe2)	–	155.7
C=CCCCC[C@@H](C)C(=O)N(C)[C@H](C(=O)N(C)[C@H](C(=O)N[C@H](C(=O)N(C)[C@@H](C)C(=O)N(C)[C@@H](Cc1ccccc1)C(N)=O)C(C)C)C(C)C)C(C)C [Almiramide C (9), Almiramide C] ({Octanoyl(2R-Me,7,8-dehydro)}-[NMeV][NMeV]V[NMeA][NMeF]-NH2)	–	33.1
